Experiment [1] deals with human TRPC6 ion channel (Homo sapiens (Human), UniProt Q9Y210). Kind of experiment: Inhibition of TRPC6 FLIPR Assay (membrane potential dye, OAG challenge). The format is cell-based. The conditions noted are these: TRPC6-HEK293 cells, OAG at EC80; most potent isolated isomer; mean of minimum 2 experiments. The source says: (§1) TRPC3 and TRPC6 channel opening causes an influx of predominantly calcium and sodium cations that result in a change in the electrical potential across the cell membrane. This change in membrane potential can be monitored using membrane potential dyes in the following FLIPR™ (Fluorescent Imaging Plate Reader) assays.
human TRPC6 ion channel, sequence (Q9Y210 whole entry): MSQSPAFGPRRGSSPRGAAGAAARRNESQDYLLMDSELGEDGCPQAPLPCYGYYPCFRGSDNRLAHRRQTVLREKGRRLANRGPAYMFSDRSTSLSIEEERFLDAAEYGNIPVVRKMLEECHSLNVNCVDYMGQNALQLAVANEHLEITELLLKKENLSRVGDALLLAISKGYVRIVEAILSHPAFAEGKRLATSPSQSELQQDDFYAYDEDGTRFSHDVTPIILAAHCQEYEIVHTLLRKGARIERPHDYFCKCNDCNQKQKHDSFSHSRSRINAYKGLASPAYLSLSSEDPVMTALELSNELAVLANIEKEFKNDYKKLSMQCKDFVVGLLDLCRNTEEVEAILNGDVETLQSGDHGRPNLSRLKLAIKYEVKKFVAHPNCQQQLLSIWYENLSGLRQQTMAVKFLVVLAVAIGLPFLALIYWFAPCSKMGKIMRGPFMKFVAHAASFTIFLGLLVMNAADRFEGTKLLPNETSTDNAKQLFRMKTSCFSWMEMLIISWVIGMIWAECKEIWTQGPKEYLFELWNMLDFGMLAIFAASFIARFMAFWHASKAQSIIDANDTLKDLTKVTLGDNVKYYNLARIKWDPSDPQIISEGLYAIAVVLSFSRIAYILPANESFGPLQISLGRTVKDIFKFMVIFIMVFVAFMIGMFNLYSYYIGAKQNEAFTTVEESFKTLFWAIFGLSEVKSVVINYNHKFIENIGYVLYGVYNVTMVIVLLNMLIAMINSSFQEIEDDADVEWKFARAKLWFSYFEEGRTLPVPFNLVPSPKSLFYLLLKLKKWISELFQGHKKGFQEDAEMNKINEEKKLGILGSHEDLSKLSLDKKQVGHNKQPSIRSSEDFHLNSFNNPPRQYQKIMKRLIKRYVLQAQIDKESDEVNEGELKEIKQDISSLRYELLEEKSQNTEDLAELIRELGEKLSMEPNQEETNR
TRPC6-HEK293 was purchased from PerkinElmer (PerkinElmer, Product No.: AX-012-C), HEK293 cells were transfected using the pcDNA3.1(+)expression vector containing the coding sequence of the human TRPC6 ion channel. The coding sequence used is identical to coding sequence of GenBank NM_004621 with the exception of 2 synonym variations (t1683c and c2529t). The cells were grown in DMEM+10% fetal bovine serum (FBS) 0.5 mg/ml. Geneticin (ion channel expression selection) as culture medium.
TRPC6 cells were plated at 10K cells/well into 384-well polystyrene plates and then grown for 24 hs at 37° C. plus 5% CO2. After this time the media was aspirated using a Tecan plate washer and then replaced with 40 μL of dye loading buffer (130 mM NaCl, 5 mM KCl, 0.15 mM CaCl2, 1 mM MgCl2, 20 mM HEPES ((4-(2-hydroxyethyl)-1-piperazineethanesulfonic acid)), 5 mM NaHCO3). For TRPC6, a final concentration of 0.5× is used. Cells with membrane potential dye were then incubated for 30 mins at room temperature prior to beginning the experiments.
(§2) To test the effects of compounds on TRPC6 activity, compounds were first diluted in 100% DMSO to 3× the final concentration to be used in the experiments. Typical dose-response experiments ranged from 10 μM (top concentration) to 0.5 nM (lowest concentration). Ten microliters of 0.5× compound in 0.5% DMSO were added to 40 μL of cells incubated with membrane potential dye. Compound addition was performed on a FLIPRTetra or a FLIPR 384 (MDS Analytical Technologies, Molecular Devices, Sunnyvale, Calif., 94089, USA). After a 400 second incubation with compound, 12.5 of OAG (1-oleoyl-2-acetyl-sn-glycerol (OAG), Sigma, Gillingham, Dorset, SP8 4XT Cat #O6754-10 MG) was added at 5× the EC80 (typical EC80 for TRPC6=3 μM final). The OAG challenge is designed to measure the inhibitory activity of compounds on receptor-operated TRPC6 activation.
(§3) All data was normalized to low controls (buffer alone) or high controls (OAG EC100). Data was analyzed using an XC50 curve fitting module and reported as pIC50 or IC50 values. The values are averaged to determine a mean value, for a minimum of 2 experiments.

Experiment [2] has as its target human TRPC3 ion channel (Homo sapiens (Human), UniProt Q13507). Kind of experiment: Inhibition of TRPC3 FLIPR Assay (membrane potential dye, OAG challenge). It is filed as cell-based. The conditions noted are these: TRPC3 transfected AD293 cells, OAG at EC80; most potent isolated isomer; mean of minimum 2 experiments.
Text: as §1
AD293 cells were transfected using the PLVX-puro lentivirus vector containing the coding sequence of the human TRPC3 ion channel. Puromycin-resistant cells were selected by treating with […] puromycin for two weeks. Monoclonal cells were obtained by limiting dilution and compared for their response to OAG in a membrane potential assay. The cells were grown in DMEM+10% fetal bovine serum (FBS)+1 μg/mL puromycin as culture medium.
TRPC3 cells were plated at 9K/well into 384-well polystyrene plates. Cells were grown for 24 h at 37° C. plus 5% CO2 after which media was aspirated using a Tecan plate washer and replaced with 40 μL of dye loading buffer (130 mM NaCl, 5 mM KCl, 0.15 mM CaCl2, 1 mM MgCl2, 20 mM HEPES ((4-(2-hydroxyethyl)-1-piperazineethanesulfonic acid)), 5 mM NaHCO3). For TRPC3 a final concentration of 0.5× membrane potential dye (Molecular Devices Membrane Blue, FLIPR Membrane Potential Assay Kit (bulk), Product #R8034(BLUE), Molecular Devices, Sunnyvale, Calif., 94089, USA) was used. Cells with membrane potential dye were then incubated for 30 mins at room temperature prior to beginning the experiments.
as §2, with “TRPC3” for “TRPC6”, “5×” for “0.5×”, “Technologies).” for “Technologies, Molecular Devices, Sunnyvale, Calif., 94089, USA).”, “12.5 μL” for “12.5”, “OAG” for “OAG (1-oleoyl-2-acetyl-sn-glycerol (OAG), Sigma, Gillingham, Dorset, SP8 4XT Cat #O6754-10 MG)”, “TRPC3=2” for “TRPC6=3”
as §3

human TRPC3 ion channel, sequence (Q13507 whole entry): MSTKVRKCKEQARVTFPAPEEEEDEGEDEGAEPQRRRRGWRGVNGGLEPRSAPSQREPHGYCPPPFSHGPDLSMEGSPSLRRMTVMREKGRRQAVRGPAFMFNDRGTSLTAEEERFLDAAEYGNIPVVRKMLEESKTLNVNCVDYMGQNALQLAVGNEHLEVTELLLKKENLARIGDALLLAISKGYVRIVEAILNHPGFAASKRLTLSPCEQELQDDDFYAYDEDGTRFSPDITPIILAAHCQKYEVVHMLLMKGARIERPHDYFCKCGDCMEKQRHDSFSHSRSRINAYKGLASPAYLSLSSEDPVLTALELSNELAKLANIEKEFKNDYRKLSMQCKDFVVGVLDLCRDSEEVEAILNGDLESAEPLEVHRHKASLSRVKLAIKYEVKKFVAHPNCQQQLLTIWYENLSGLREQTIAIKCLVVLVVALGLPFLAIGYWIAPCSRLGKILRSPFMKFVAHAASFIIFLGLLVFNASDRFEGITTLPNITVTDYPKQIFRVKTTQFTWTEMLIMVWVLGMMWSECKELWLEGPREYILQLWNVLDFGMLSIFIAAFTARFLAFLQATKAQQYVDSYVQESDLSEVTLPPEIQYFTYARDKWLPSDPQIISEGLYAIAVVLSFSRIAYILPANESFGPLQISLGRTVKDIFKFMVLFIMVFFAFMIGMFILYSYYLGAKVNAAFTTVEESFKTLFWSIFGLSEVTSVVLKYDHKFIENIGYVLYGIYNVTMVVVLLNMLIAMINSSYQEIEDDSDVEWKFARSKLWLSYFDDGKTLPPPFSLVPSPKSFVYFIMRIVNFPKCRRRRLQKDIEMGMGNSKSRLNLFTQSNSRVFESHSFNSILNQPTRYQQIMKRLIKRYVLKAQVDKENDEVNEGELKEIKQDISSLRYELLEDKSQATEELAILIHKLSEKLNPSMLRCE

On to `N#Cc1ccc(OC2CC(c3ccc(F)cc3)CC2N2CCC[C@@H](N)C2)nc1` (single isomer, unassigned) [Example 26], for which the IC50 in experiment [1] was found to be 9.51 nM; in experiment [2] it was 25.5 nM.

In the case of `NC1CCCN(C2CC(c3ccc(F)cc3)CC2n2nccn2)C1` (stereo not shown) [Example 1, 1-[4-(4-fluorophenyl)-2-(triazol-2-yl)cyclopentyl]piperidin-3-amine], the IC50 came to 3.37 nM in experiment [1] and 17.7 nM in experiment [2].

Consider `N#Cc1cnn(C2CC(c3ccc(F)cc3)CC2N2CCCC(N)C2)c1` (stereo not shown) [Example 2, 1-[2-(3-amino-1-piperidyl)-4-(4-fluorophenyl)cyclopentyl]pyrazole-4-carbonitrile], for which the IC50 in experiment [1] was found to be 7.97 nM; in experiment [2], 8.31 nM.

Take `N#Cc1ccn(C2CC(c3ccc(F)cc3)CC2N2CCCC(N)C2)n1` (stereo not shown) [Example 3, 1-[2-(3-amino-1-piperidyl)-4-(4-fluorophenyl)cyclopentyl]pyrazole-3-carbonitrile]: the results for the IC50 in experiment [1] and in experiment [2] were under 19.9 nM and 46.4 nM, respectively.

As for `N#Cc1ccn(C2CC(c3ccc(F)cc3)CC2N2CCCC(N)C2)c1` (stereo not shown) [Example 4, 1-[2-(3-amino-1-piperidyl)-4-(4-fluorophenyl)cyclopentyl]pyrrole-3-carbonitrile], the IC50 in experiment [1] came to 5.31 nM; in experiment [2] it was 5.39 nM.

`N#Cc1cn(C2CC(c3ccc(F)cc3)CC2N2CCCC(N)C2)nn1` (stereo not shown) [Example 5, 1-[2-(3-amino-1-piperidyl)-4-(4-fluorophenyl)cyclopentyl]triazole-4-carbonitrile]: the IC50 in experiment [1] is 3.78 nM; in experiment [2] it was 4.28 nM.

With `N#Cc1cnn(C2CC(c3ccc(F)cc3)CC2N2CC(N)CC(F)C2)c1` (stereo not shown) [Example 6, 1-[2-(3-amino-5-fluoro-1-piperidyl)-4-(4-fluorophenyl)cyclopentyl]pyrazole-4-carbonitrile], the IC50 stood at 4.06 nM in experiment [1] and 6.22 nM in experiment [2].

For the compound `N#Cc1cnn(C2CC(c3ccc(F)cc3)CC2N2CCC(F)(F)C(N)C2)c1` (stereo not shown) [Example 7, 1-[2-(3-amino-4,4-difluoro-1-piperidyl)-4-(4-fluorophenyl)cyclopentyl]pyrazole-4-carbonitrile], the IC50 in experiment [1] was determined as 16.2 nM; in experiment [2] it was 17.5 nM.

As for `NC1CCCN(C2CC(c3ccc(F)cc3)CC2n2cccn2)C1` (stereo not shown) [Example 8, 1-[4-(4-fluorophenyl)-2-pyrazol-1-yl-cyclopentyl]piperidin-3-amine], the IC50 in experiment [1] was 2.8 nM; in experiment [2] it was 7.97 nM.

On to `NC1CC(F)CN(C2CC(c3ccc(F)cc3)CC2n2cccn2)C1` (stereo not shown) [Example 9, 5-fluoro-1-[4-(4-fluorophenyl)-2-pyrazol-1-yl-cyclopentyl]piperidin-3-amine], for which the IC50 in experiment [1] was 3.4 nM; in experiment [2], 6.64 nM.

In the case of `N[C@@H]1C[C@@H](F)CN([C@@H]2C[C@H](c3ccc(F)cc3)C[C@H]2n2cncn2)C1` [Example 10, (3R,5R)-5-fluoro-1-[(1R,2R,4S)-4-(4-fluorophenyl)-2-(1,2,4-triazol-1-yl)cyclopentyl]piperidin-3-amine], the IC50 in experiment [1] was 29.8 nM; in experiment [2], 16 nM.

In the case of `NC1CC(F)CN(C2CC(c3ccc(F)cc3)CC2n2ncnn2)C1` (stereo not shown) [Example 11, 5-fluoro-1-[4-(4-fluorophenyl)-2-(tetrazol-2-yl)cyclopentyl]piperidin-3-amine], the IC50 in experiment [1] is 10.6 nM; in experiment [2], 4.03 nM.

In the case of `NC1CCCN(C2CC(c3ccc(F)cc3)CC2n2ncnn2)C1` (stereo not shown) [Example 12, 1-[4-(4-fluorophenyl)-2-(tetrazol-2-yl)cyclopentyl]piperidin-3-amine], the IC50 was found to be 26.7 nM in experiment [1] and 7.55 nM in experiment [2].

For the compound `N#Cc1ncn(C2CC(c3ccc(F)cc3)CC2N2CCCC(N)C2)n1` (stereo not shown) [Example 13, 1-[2-(3-amino-1-piperidyl)-4-(4-fluorophenyl)cyclopentyl]-1,2,4-triazole-3-carbonitrile], the results for the IC50 in experiment [1] and in experiment [2] were 7.1 nM and 14.3 nM, respectively.

As a reminder, the IC50 is the concentration needed to halve the response being measured.

(Values after patent US11274091B2 (Dizal (Jiangsu) Pharmaceutical Co., Ltd., priority 2018, dated 2022).)
